Patent publication EP0571511B1, “NOVEL UREAS AND THIOUREAS, PREPARATION THEREOF AND APPLICATION IN THERAPY” (priority 1991, dated 1992)

Biological target: acétylcholinestérase (Homo sapiens, UniProt P22303)
Test: biochemical
Settings: Inhibition de l'activité de l'acétylcholinestérase; read-out: IC₅₀
Description: Les composés de l'invention ont été soumis à des essais pharmacologiques qui ont montré leur intérét en tant qu'inhibiteurs de l'acétylcholinestérase.

Chain of acétylcholinestérase (P22303 32-614, species assumed): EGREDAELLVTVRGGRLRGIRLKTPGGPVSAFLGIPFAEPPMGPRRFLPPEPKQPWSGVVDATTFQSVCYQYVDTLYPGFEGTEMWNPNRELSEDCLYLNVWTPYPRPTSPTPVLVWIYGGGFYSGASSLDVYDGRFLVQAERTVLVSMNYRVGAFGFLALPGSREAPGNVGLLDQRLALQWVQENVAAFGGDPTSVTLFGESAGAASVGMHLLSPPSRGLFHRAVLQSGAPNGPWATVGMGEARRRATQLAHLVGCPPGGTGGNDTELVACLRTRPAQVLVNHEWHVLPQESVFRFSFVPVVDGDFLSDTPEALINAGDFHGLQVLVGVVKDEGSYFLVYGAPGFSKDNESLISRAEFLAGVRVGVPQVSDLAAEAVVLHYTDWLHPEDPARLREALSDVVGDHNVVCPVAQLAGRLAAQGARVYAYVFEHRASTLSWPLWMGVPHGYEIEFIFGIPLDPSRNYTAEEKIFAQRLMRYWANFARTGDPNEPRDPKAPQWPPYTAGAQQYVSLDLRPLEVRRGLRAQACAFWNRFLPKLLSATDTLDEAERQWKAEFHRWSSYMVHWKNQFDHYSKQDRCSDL

With `O=C(NC(=S)NCCC1CCN(Cc2ccccc2)CC1)c1ccc2c(c1)OCO2` [compound 12] the IC50 was 18 nM.
